The values below are quoted from earlier work in patent US12485291B2, “Method for treatment of cholangiocarcinoma with cold atmospheric plasma and folfirinox” (Jerome Canady Research Institute for Advanced Biological …, priority 2019, dated 2025).

SMILES strings stand for the structures.

The data set concerns metastatic pancreatic cancer. The following applies: patients with metastatic pancreatic cancer.

In the case of `Nc1ccn([C@@H]2O[C@H](CO)[C@@H](O)C2(F)F)c(=O)n1` [gemcitabine], the overall survival is reported as 6.8 months.
